Tests used:
[1] = tested on: ADRP mRNA in HK-2 cells (endogenous PPARα); assay: ADRP mRNA induction in HK-2 cells (real-time RT-PCR); format: cell-based, human; settings: 100 nM GW9578
Procedure: Values were normalized to 18S rRNA levels.
Cell culture: The following cell lines were obtained from American Type Culture Collection (ATCC) and cultured in the recommended medium for each cell type: HepG2, HK-2, Caki-1, LNCaP (CloneFGC), SW872, and ACHN. PPARα compounds were prepared to a 500× stock in DMSO; corresponding control cells received an equal volume of vehicle (0.2% v/v).
(§1) Real-time PCR: Fluorescence-based real-time PCR was performed essentially as described (Abbaszade et al., (1999) J. Biol. Chem. 274:23443-23450). […] Taqman-based real-time PCR expression profiling was performed using 25 ng of each cDNA according to the manufacturer's (PE Biosystems) instructions with fluorescence being monitored in real-time with an ABI Prism 7700 (PE Biosystems). Relative expression levels were determined essentially as described (Gibson et al., (1996) Genome Res. 6:995-1001) using standard curves for each transcript. Relative abundance was then determined from these standard curves, subtracting mRNA levels obtained from negative control reactions performed in the absence of reverse transcriptase, and normalized to 18S rRNA levels. […]

[2] = tested on: hamster PDK-4 mRNA in kidney; assay: PDK-4 mRNA induction in kidney of fat-fed hamsters; format: in vivo; settings: single dose (GW9578 3 mg/kg, fenofibrate 100 mg/kg, gemfibrozil 500 mg/kg), 16 hours
Procedure: FIG. 4B is a bar graphs depicting the induction of PDK-4 mRNA in hamster kidney by PPARα ligands. […] After 16 hours, the tissues were harvested, total RNA isolated and levels of hamster PDK-4 mRNA were detected by RT-PCR. The values are normalized to 18S rRNA levels. The mean and SEM of three individual animals are shown.
PDK-4 plays a critical role in regulating glucose metabolism by phosphorylating and inactivating the pyruvate dehydrogenase complex in response to increased fatty acid oxidation. […] To investigate the response of PDK-4 to fibrate treatment in vivo, in another aspect of the present invention the fat-fed hamster model was employed, which closely mimics the serum lipid profiles of humans than other rodent models (Sullivan et al., (1993) Lab. Anim. Sci. 43:575-578). […] These doses were previously shown to yield maximal effects on blood triglycerides in hamster. […] In hamster kidney, the basal levels of PDK-4 mRNA were approximately 10-fold higher than in the liver (FIG. 4B). […] Fibrates are effective treatments for lowering serum triglyceride levels. To verify that the doses used in this study were efficacious, blood triglyceride levels were monitored over a 48 hour time course.
as §1

CCCCCCCN(CCc1ccc(SC(C)(C)C(=O)O)cc1)C(=O)Nc1ccc(F)cc1F [GW9578, ureido-thioisobutyric acid]
Time to near maximal increase of ADRP mRNA [1]: ≤ 2 h
Induction of PDK-4 mRNA in kidney [2]: 7 fold
